Results: US8664162B2, “Method for application of pesticides and plant growth regulators and nutrients to plants” (ArborSystems, priority 2009, dated 2014)

How the values were obtained:
[1] = in vivo; conditions: phylodendrons
Procedure: (§1) Leaves obtained from the treated and untreated trees 100 days after treatment were analyzed for imidacloprid by enzyme-linked immunosorbent assay (ELISA). Briefly, leaves were dried completely and leaf blade material was separated from stems and petioles. The leaf blade material was ground to a fine powder, and about 5 grams of the material placed in a vial. A measured amount of methanol was added so that the leaf material was covered and 1 to 2 ml of methanol was beyond the leaf material, for a total of 10 to 20 ml of methanol. The vials were mixed well at least twice a day for at least 48 hours. After at least 48 hours, 10 microliters of the liquid was transferred to a smaller vial, and 1.5 ml distilled water added, and the vials were mixed well. ELISA was performed using the Envirologix™ QuantiPlate Kit for Imidacloprid (EP 006).
Five ml of a formulation of 5% imidacloprid and 95% THFA was applied to the soil of each of two 4-inch diameter pots of phylodendrons. An equal number of control plants received no insecticide treatment. All of the plants were watered and kept in the same area. On the tenth day after treatment, leaves from treated and control plants were collected and tested for imidacloprid by ELISA as described in Example 1.

[2] = in vivo; conditions: aspen tree
Procedure: The tree had not previously been treated with any pesticide. About 4 to 5 ml of a formulation containing 5% imidacloprid and 95% tetrahydrofurfuryl alcohol (THFA) was poured onto the soil around the base and then watered in.
as §1

**Q.** With O=[N+]([O-])NC1=NCCN1Cc1ccc(Cl)nc1 [imidacloprid] as the compound, how does the “Time for absorption by the roots and translocation to the leaves” value [1] read?
**A.** Its value is at most 10 days.

**Q.** And the concentration at 10 days [1]?
**A.** The concentration at 10 days was 72000 ng/g.

**Q.** What about the concentration at 100 days [2] of the same compound?
**A.** The concentration at 100 days was 17000 ng/g.
